Experiment: Excipient compatibility study (colour change / ascorbic acid degradation)
Type: physicochemical
Settings: presence of metallic cations (such as Cu2+, Fe3+, Zn2+)
Method: Excipient compatibility studies with all excipients against Na picosulfate and ascorbic acid were carried out. Antioxidants like Na meta-bisulphite, Na bisulphite and Na sulphite were added. Further, the study was carried out to determine if citric acid helped stabilize the colour change of ascorbic acid. Samples were assessed at 1 week, 2 weeks, 4 weeks and at 8 weeks.
Tertiary mixtures with components (250 mg MgO+500 mg AA+25 mg Sulphites (or 100 mg Acids) • MgO+ascorbic acid+Na meta-sulphite • MgO+ascorbic acid+Na bisulphite • MgO+ascorbic acid+Na sulphite • MgO+ascorbic acid+citric acid • MgO+ascorbic acid+tartaric acid • MgO+sodium ascorbate+Na meta-sulphite • MgO+sodium ascorbate+Na bisulphite • MgO+sodium ascorbate+Na sulphite • MgO+sodium ascorbate+citric acid • MgO+sodium ascorbate+tartaric acid Quaternary mixtures with components ((250 m, MgO+500 mg AA+20 mg NaP+25 Sulphites (or 100 mg acids) • MgO+Na picosulfate+ascorbic acid+Na meta-sulphite • MgO+Na picosulfate+ascorbic acid+Na bisulphite • MgO+Na picosulfate+ascorbic acid+Na sulphite • MgO+Na picosulfate+ascorbic acid+citric acid • MgO+Na Picosulfate+ascorbic acid+tartaric acid
Binary, tertiary and quaternary mixtures of the API and excipients at various ratios were prepared as follows: • 1. […] Add approximately half of the excipient quantity into a container. • 3. […]

O=C1O[C@H]([C@@H](O)CO)C(O)=C1O [ascorbic acid]
Degradation of ascorbic acid with excipients: degrades in the presence of metallic cations

From patent US11058671B2, “Formulations and methods of manufacturing formulations for use in colonic evacuation” (RedHill Biopharma Ltd., priority 2012, dated 2021)
